Test results: US11981617B2, “Ketamine pamoate and use thereof” (Alar Pharmaceuticals Inc., priority 2019, dated 2024)
Where a name gives a salt, the structure may show the parent alone.

How the values were obtained:
DEX-treated mice [1] = assay: Forced swimming test (FST) in DEX-induced depression-like animal model; type: in vivo, ICR mice; conditions: 120 mg/kg of ketamine free-base; for onset of antidepressant effect on FST: single injection; for immobility time in FST: single s.c. injection
Protocol: (§1) ICR mice were intraperitoneally injected with saline or DEX at postnatal day 1 to 3 (P1-P3) with dose decrement of 0.5 mg/kg, 0.3 mg/kg, and 0.1 mg/kg, respectively. The drugs for each group or saline were administered subcutaneously at postnatal day 35, P35 (i.e., dosing day 0, D0), and forced swimming test (FST) was conducted on dosing day 1 (D1, P36) and dosing day 10 (P45) after drug administration. Evaluation of sedation behavior was also conducted by sedation rating scale from the time immediately post injection to dosing day 14 (P49) after drug administration.
(§2) Neonatal ICR mice (BioLASCO, Taipei, Taiwan) were intraperitoneally injected with saline or DEX on postnatal day 1, 2, and 3 (P1, P2, and P3) at doses of 0.5 mg/kg, 0.3 mg/kg, and 0.1 mg/kg, respectively. […] The dugs were then subcutaneously injected into mice of the corresponding groups at postnatal day 35, while the mice of the Control and Saline groups were injected with equal volumes of 0.9% saline. Drugs for administration were prepared in phosphate-buffered saline (PBS), and then well mixed by high speed vortex before injection.
Antidepressant effects were evaluated by forced swimming test (FST), which performed on dosing day 1 (P36) and dosing day 10 (P45) after drug administration. The mice of all groups were trained for swimming before drug administration. During the FST, mice were individually placed into 5 L glass cylinders (height 27 cm, diameter 18 cm) filled with 4 L of water (23±1° C.). The total duration of immobility time during 5 minutes of FST was observed. Results were presented as mean±SEM. Student's t-test was utilized to analyze Saline group (DEX-treated mouse group injected with saline) versus the other groups at each time point. * p<0.05, ** p<0.01, and *** p<0.001 indicate significant differences compared to the Saline group.

[2] = tested on: female Sprague Dawley (SD) rats; assay: 3-month repeat-dose toxicology study; conditions: for neuronal morphology in prefrontal cortex / bladder mucosal folds (histopathology) / bladder apical epithelial surfaces (histopathology): total 1440 mg/kg of ketamine free-base; for neuronal morphology in prefrontal cortex: brain slices; for bladder mucosal folds (histopathology): magnification x40; for bladder apical epithelial surfaces (histopathology): magnification x400; for injection site observation (skin surface) / injection site histopathology: inflammatory cells at higher magnification / injection site histopathology: tissue morphology: KET 60 mg/kg twice weekly, KEP 480 mg/kg monthly; for injection site histopathology: inflammatory cells at higher magnification / injection site histopathology: tissue morphology: HE staining
DEX-treated mice [3] = assay: Sedation behavior by rodent sedation rating scale; type: in vivo, ICR mice; conditions: s.c., 120 mg/kg of ketamine free-base; for sedation behavior (rodent sedation rating scale): immediately post injection to 14 days
Protocol: as §1, §2
Furthermore, sedation behavior was also evaluated by rodent sedation rating scale (Table 6) immediately post drug administration to 14 days.

[4] = in vivo; cited from earlier work
beagle dogs = assay: Injection site evaluation by Draize skin erythema/eschar rating scale; type: in vivo; conditions: male beagle dogs, individual animals, single 44 mg/kg of ketamine free-base, Day 1, 2, 4, 8, 15
Protocol: A specific in vivo study to evaluate the injection site reaction of KEP was conducted in beagle dogs ([…] LABES, CO., LTD. Ina, Japan).

| Compound | onset of antidepressant effect on FST (DEX-treated mice [1]) | immobility time in FST (DEX-treated mice [1]; day 1 after administration) | immobility time in FST (DEX-treated mice [1]; day 10 after administration) | neuronal morphology in prefrontal cortex ([2]; 12 weeks) | bladder mucosal folds (histopathology) ([2]; 12 weeks) | bladder apical epithelial surfaces (histopathology) ([2]; 12 weeks) | pathological bladder and brain changes ([2]; high dose subchronic treatment for 12 weeks) | injection site observation (skin surface) ([2]; s.c., 12 weeks) | injection site histopathology: inflammatory cells at higher magnification ([2]; s.c., 12 weeks) | injection site histopathology: tissue morphology ([2]; s.c., 12 weeks) | maximum tolerated dose (MTD) ([2]; subcutaneous injection) | sedation behavior (rodent sedation rating scale) (DEX-treated mice [3]) | time to full recovery from sedation (DEX-treated mice [3]; post administration) | LD50 dose [4] | tolerability of single subcutaneous injection ([2]; 480 mg/kg of ketamine free-base) | density of inflammatory cells at injection site under microscopic fields ([2]; s.c., 12 weeks, KEP 480 mg/kg monthly versus KET 60 mg/kg twice weekly) | Draize skin erythema/eschar observation at injection site (beagle dogs) |
| --- | --- | --- | --- | --- | --- | --- | --- | --- | --- | --- | --- | --- | --- | --- | --- | --- | --- |
| CNC1(c2ccccc2Cl)CCCCC1=O (centres unmarked) [KET, ketamine HCl, reference compound] | rapid-onset antidepressant effects | reduced the immobility times | reduced the immobility times | granule cells were lack, and the morphology of pyramidal cells changed to be small or shrinking like in process of degradation | protrusive and enlarged mucosal folds | smooth | bladder fibrosis and neuronal morphology alteration in brain | injection site erythema, which gradually became open wound | infiltration of inflammatory cells in connective tissues | morphology damage on epidermis, dermis, subcutis, and muscle tissues | 60 mg/kg of ketamine free-base | heavy sedation-related behavior | 2 h |  |  |  |  |
| CN[C@@]1(c2ccccc2Cl)CCCCC1=O [R-KEP, R-ketamine pamoate] | rapid-onset antidepressant effects | reduced the immobility times | reduced the immobility times |  |  |  |  |  |  |  |  | normal behavior |  |  |  |  |  |
| CN[C@]1(c2ccccc2Cl)CCCCC1=O [S-KEP, S-ketamine pamoate] | rapid-onset antidepressant effects | reduced the immobility times | reduced the immobility times |  |  |  |  |  |  |  |  | normal behavior |  |  |  |  |  |
| CNC1(c2ccccc2Cl)CCCCC1=O (centres unmarked) [ketamine] |  |  |  |  |  |  |  |  |  |  |  |  |  | 229 mg/kg |  |  |  |
| R, S-ketamine pamoate [KEP] | rapid-onset antidepressant effects | reduced the immobility times | reduced the immobility times | normal | thin mucosal folds | rough |  | normal skin surfaces | infiltration of inflammatory cells in connective tissues | normal morphology of skin slices |  | normal behavior |  |  | well tolerable | much less than KET group | No erythema |
